From the supplement of paper PMC5579334 come the findings set out here.

± gives the standard deviation of the averaged measurements.

The test system of assay [1] is STS26T. The experiment in a line: drug sensitivity score (DSS, CellTox-Green cytotoxicity, 72 h) (DSS (dimensionless)); higher = more cytotoxic; extreme values may be limits of the assay. The method, boiled down: (§1)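 MPNST cell lines and primary human Schwann cells were incubated 72 h at 37 °C in 384-well plates holding five 10-fold compound dilutions. CellTox-Green was added before seeding at a final 1:1000 dilution and reported fluorescence from DNA released by disrupted cells. Signals were scaled to vehicle and positive-control wells, and cultures failing plate quality control were dropped. Drug sensitivity score and relative IC50 come from four-parameter logistic fits, with IC50 censored at the top concentration.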

For assay [2], the system named is S1507-2. Described as above. The method, boiled down:
as §1

In assay [3] the test system is HSC2 (primary human Schwann cells). The description is as above. The method, boiled down: as §1
For assay [4], the system named is HSC1 (primary human Schwann cells). Described as above. The method, boiled down: as §1
Assay [5] deals with ST8814. The assay is described as above. The method, boiled down: as §1
The subject of assay [6] is HS-PSS. The assay is described as above. The essentials: as §1
For assay [7], the system named is STS26T. The experiment in a line: drug sensitivity score (DSS, CellTiter-Glo viability, 72 h) (DSS (dimensionless)); higher = more sensitive; extreme values may be limits of the assay. The method, boiled down: (§2)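 Viability was scored by CellTiter-Glo ATP luminescence, scaled from vehicle to positive-control wells, with duplicates averaged where present. The cells, MPNST lines and primary human Schwann cells at 750–1000 per well, sat 72 h at 37 °C, 5% CO2, in 384-well plates preprinted with each compound at five concentrations in 10-fold steps. Four-parameter logistic fits were run on the data. These fits give drug sensitivity score and relative IC50 censored at the top concentration, and percent inhibition is reported at the top concentration.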

Assay [8] deals with S1507-2. Described as above. The essentials: as §2
The subject of assay [9] is HSC2 (primary human Schwann cells). The assay is described as above. The essentials:
as §2

The test system of assay [10] is HSC1 (primary human Schwann cells). The description is as above. The method, boiled down: as §2
For assay [11], the system named is HS-Sch-2. The assay is described as above. The essentials: as §2
The subject of assay [12] is S462. The description is as above. The essentials:
as §2

Assay [13] concerns ST8814. The description is as above. The essentials:
as §2

Assay [14] has as its system HS-PSS. The assay is described as above. The essentials: as §2
The subject of assay [15] is YST-1. The description is as above. The method, boiled down:
as §2

In assay [16] the test system is STS26T. The experiment in a line: % inhibition of CellTiter-Glo viability at highest tested concentration (72 h), relative to DMSO and benzethonium chloride controls; higher = more inhibition. The essentials:
as §2

Assay [17] concerns S1507-2. The description is as above. The essentials: as §2
The test system of assay [18] is HSC2 (primary human Schwann cells). Described as above. The essentials:
as §2

In assay [19] the test system is HSC1 (primary human Schwann cells). The assay is described as above. The method, boiled down: as §2
In assay [20] the test system is HS-Sch-2. The description is as above. The method, boiled down:
as §2

For assay [21], the system named is S462. Described as above. The essentials:
as §2

Assay [22] relates to ST8814. The description is as above. The method, boiled down: as §2
Assay [23] concerns HS-PSS. The assay is described as above. The essentials: as §2
For assay [24], the system named is YST-1. The description is as above. The essentials:
as §2

As for `O=c1[nH]c(=O)n([C@H]2C[C@H](O)[C@@H](CO)O2)cc1F` [Floxuridine] (max concentration tested 10000 nM), the drug sensitivity score in the assay on STS26T [1] turned out to be 7.21; with S1507-2 [2] it was 0; in assay [3], 0.287; in [4] it was 1.27; in the assay with ST8814 [5] it was 2.95; in the assay with HS-PSS [6], 0. Besides, the drug sensitivity score in the assay on STS26T [7] turned out to be 21.5; in the assay with S1507-2 [8], 5.09 ± 3.2; in assay [9], 10.6; in [10] it was 6.07; in the assay with HS-Sch-2 [11] it was 17.9; in the assay on S462 [12] it was 22.4 ± 2.9. The drug sensitivity score in the assay on ST8814 [13] was found to be 12.5; with HS-PSS [14] it was 2.58; in the assay with YST-1 [15] it was 14.7. The “% inhibition” value in the assay with STS26T [16] was determined as 77.3%; in the assay on S1507-2 [17] it was 31.3 ± 10%; in [18], 53.8%; in assay [19] it was 53.1%; in the assay on HS-Sch-2 [20] it was 84.7%; in the assay on S462 [21], 84.1 ± 3.6%. In addition, the “% inhibition” value was 57.8% in the assay with ST8814 [22], 30.7% in the assay with HS-PSS [23] and 68.3% with YST-1 [24].
`Nc1nc(F)nc2c1ncn2[C@@H]1O[C@H](CO)[C@@H](O)[C@@H]1O` [Fludarabine] (max concentration tested 10000 nM): the drug sensitivity score (in the assay with STS26T [1]; in the assay with S1507-2 [2]; in assay [3]; in assay [4]; in the assay with ST8814 [5]; in the assay on HS-PSS [6]) was 0 throughout. Also, the drug sensitivity score in the assay with STS26T [7] turned out to be 2.39; in the assay on S1507-2 [8], 0.851 ± 1.2; in [9], 2.94; in assay [10], 0.98; with HS-Sch-2 [11], 2.33; with S462 [12] it was 0.582 ± 0.72. The drug sensitivity score worked out at 0 in the assay on ST8814 [13], 2.18 in the assay with HS-PSS [14] and 3.5 in the assay with YST-1 [15]. Besides, the “% inhibition” value in the assay with STS26T [16] amounted to 31.6%; in the assay on S1507-2 [17] it was 17.2 ± 10%; in [18], 48.6%; in assay [19], 27.8%; in the assay on HS-Sch-2 [20], 35%; in the assay on S462 [21], 20 ± 11%. In addition, the “% inhibition” value turned out to be 1.25% in the assay on ST8814 [22], 24.9% with HS-PSS [23] and 69.7% in the assay with YST-1 [24].
Turning to `O=c1[nH]cc(F)c(=O)[nH]1` [Fluorouracil] (max concentration tested 10000 nM), the drug sensitivity score (in the assay on STS26T [1]; with S1507-2 [2]; in assay [3]; in [4]; in the assay with ST8814 [5]; in the assay on HS-PSS [6]) was 0 each time. In addition, the drug sensitivity score in the assay with STS26T [7] is 6.56; in the assay with S1507-2 [8], 0.493 ± 0.7; in [9], 2.86; in assay [10], 1.94; in the assay on HS-Sch-2 [11], 1.83; in the assay with S462 [12] it was 0.808 ± 0.45. The drug sensitivity score in the assay on ST8814 [13] came to 0; in the assay with HS-PSS [14] it was 1.09; in the assay with YST-1 [15] it was 0.94. For the same compound, the “% inhibition” value turned out to be 53.4% in the assay on STS26T [16]; 11 ± 7.6% in the assay on S1507-2 [17]; 55.5% in [18]; 43.5% in assay [19]; 35% with HS-Sch-2 [20]; 27.2 ± 7% in the assay with S462 [21]. Besides, the “% inhibition” value came out at 4.62% with ST8814 [22], 29.4% in the assay on HS-PSS [23] and 25.5% with YST-1 [24].
For the compound `CC(C)C(=O)Nc1ccc([N+](=O)[O-])c(C(F)(F)F)c1` [Flutamide] (max concentration tested 10000 nM), the drug sensitivity score (in the assay on STS26T [1]; in the assay with S1507-2 [2]; in assay [3]; in assay [4]; with ST8814 [5]; in the assay with HS-PSS [6]) was 0 throughout. Further, the drug sensitivity score (with STS26T [7]; in the assay with S1507-2 [8]; in assay [9]; in assay [10]; in the assay on HS-Sch-2 [11]; with S462 [12]) was 0 throughout. Besides, the drug sensitivity score in the assay with ST8814 [13], in the assay on HS-PSS [14] and in the assay with YST-1 [15] was 0 each time. In addition, the “% inhibition” value is 9.3% in the assay on STS26T [16]; 4.01 ± 0.74% in the assay with S1507-2 [17]; 5.2% in assay [18]; 9.44% in assay [19]; -3.98% in the assay on HS-Sch-2 [20]; 5.56 ± 0.56% in the assay on S462 [21]. In addition, the “% inhibition” value was 4.3% in the assay with ST8814 [22], 10.5% with HS-PSS [23] and -0.22% with YST-1 [24].
On to `COc1cc2c(Oc3ccc(NC(=O)C4(C(=O)Nc5ccc(F)cc5)CC4)cc3F)ccnc2cc1OCCCN1CCOCC1` [Foretinib] (max concentration tested 1000 nM), for which the drug sensitivity score was 4.03 with STS26T [1]; 1.26 ± 0.61 in the assay with S1507-2 [2]; 0 in assay [3]; 0 in assay [4]; 2.96 with ST8814 [5]; 0.08 with HS-PSS [6]. Besides, the drug sensitivity score came to 3.62 in the assay with STS26T [7]; 5.7 ± 0.45 in the assay on S1507-2 [8]; 3.44 in assay [9]; 3.91 in assay [10]; 1.15 in the assay with HS-Sch-2 [11]; 3.22 ± 0.43 in the assay with S462 [12]. For the same compound, the values for the drug sensitivity score with ST8814 [13], in the assay with HS-PSS [14] and with YST-1 [15] were 6.43, 1.41 and 3.16, respectively. For the same compound, the “% inhibition” value with STS26T [16] amounted to 48.4%; in the assay with S1507-2 [17] it was 58.7 ± 5.1%; in assay [18] it was 53.2%; in assay [19] it was 56.5%; with HS-Sch-2 [20], 31.7%; in the assay with S462 [21] it was 50.2 ± 3%. In addition, the “% inhibition” value was 67.5% in the assay with ST8814 [22], 20.9% in the assay with HS-PSS [23] and 52.2% with YST-1 [24].
In the case of `C[C@]12CC[C@@H]3c4ccc(O)cc4C[C@@H](CCCCCCCCC[S+]([O-])CCCC(F)(F)C(F)(F)F)[C@H]3[C@@H]1CC[C@@H]2O` (some centres undefined) [Fulvestrant] (max concentration tested 1000 nM), the drug sensitivity score in the assay on STS26T [1] was 0; in the assay with S1507-2 [2], 1.33 ± 1.9; in [3], 0; in assay [4], 0; in the assay with ST8814 [5], 0; in the assay on HS-PSS [6] it was 0. Further, the drug sensitivity score in the assay with STS26T [7] stood at 0; in the assay on S1507-2 [8], 0; in assay [9], 0.538; in assay [10], 0.178; in the assay with HS-Sch-2 [11] it was 0; in the assay on S462 [12], 0. For the same compound, the drug sensitivity score in the assay on ST8814 [13], with HS-PSS [14] and with YST-1 [15] was 0 each time. For the same compound, the “% inhibition” value was 4.69% in the assay on STS26T [16]; -11.9 ± 2.2% with S1507-2 [17]; 18.2% in assay [18]; 11.4% in assay [19]; 8.02% in the assay on HS-Sch-2 [20]; 6.51 ± 4.8% in the assay on S462 [21]. The “% inhibition” value was -2.59% in the assay with ST8814 [22], 10.3% in the assay with HS-PSS [23] and 1.11% in the assay on YST-1 [24].
